From article PMC8422859, “A Novel Oral Arginase 1/2 Inhibitor Enhances the Antitumor Effect of PD-1 Inhibition in Murine Experimental Gliomas by Altering the Immunosuppressive Environment” (Frontiers in Oncology, 2021)

Legend:
[1] = test system: L-arginine (substrate of arginase); assay: L-arginine concentration in brain and plasma by LC-MS; assay type: in vivo, mouse; conditions: GL261-bearing mice, 50 mg/kg oral twice a day, day 14, 2 h after last dose
Method: Blood plasma, as well as the brain samples (from control and treated animals), were prepared for liquid chromatography coupled with mass spectrometry (LC-MS) by homogenization in 5% trichloroacetic acid (TCA) and the concentration of L-arginine – the substrate of arginase – was determined. In the urea cycle, arginase cleaves arginine to produce urea and ornithine. Ornithine reacts with carbamoyl phosphate to form citrulline. The brain homogenates prepared for arginine measurements, as well as plasma samples were also analyzed by LC-MS to determine the concentration of the drug, which was administered to animals 2 h before the euthanasia.

[2] = test system: non-CNS tumor models; conditions: cited from earlier work
[3] = test system: tumor-infiltrating immune cells in GL261 gliomas; assay: Immune cells in GL261 gliomas (immunohistochemistry, flow cytometry); assay type: in vivo, mouse
Method: The animals were sacrificed on the day 21 after GL261 tdTomato^+luc^+ cell implantation and perfused with 4% paraformaldehyde in PBS. Brains were removed, post-fixed for 48 h in the same fixative solution and placed in 30% sucrose in PBS at 4°C until the tissue sunk to the bottom of the flask. Tissue was frozen in Tissue Freezing Medium (Jung; Nussloch, Germany) and cut in 12 µm coronal sections using a cryostat. The slides were dried at room temperature for 2 h after being transferred from the -80°C storage. Cryosections were blocked in PBS containing 10% donkey serum and 0.1% Triton X-100 for 2 h and incubated overnight at 4°C with rabbit anti-Iba-1 and goat anti-Arg1 or with rabbit anti-CD8 antibodies. Next, sections were washed in PBS and incubated with corresponding secondary antibodies for 2 h at room temperature. All antibodies were diluted in 0.1% Triton X-100/PBS solution containing 3% donkey serum. Nuclei were counterstained with DAPI (1 µg/mL). Images were obtained using the Olympus microscope (Fluoview, FV10i). For reagent specifications, catalogue numbers, and concentrations, see the Supplementary Table 1. To quantify the tumor size, sections were stained with toluidine blue, and images were acquired using a Leica DM4000B microscope (Leica Microsystems, Wetzlar, Germany). Tumor areas were measured using ImageJ software (NIH, Bethesda, MD, USA) on every sixth brain slice, and tumor volumes were calculated as previously described ([26]).
On day 28 after GL261 tdTomato^+luc^+ cell implantation mice were perfused transcardially with cold phosphate-buffered saline (PBS) to clear away blood cells from the brain. […] Next, cells were collected, washed with PBS and counted using NucleoCounter (Chemometec, Denmark). […]
All antibodies were titrated prior to staining to establish the amount yielding the best stain index. Data were acquired using a BD LSR Fortessa Analyzer cytometer and analyzed with FlowJo software (v. 10.5.3, FlowJo LLC, BD). Gates were set based on FMO (fluorescence minus one) controls and back-gating analysis. […]

[4] = test system: GL261 tdTomato+luc+ glioma; assay: GL261 intracranial glioma growth (tumor volume, bioluminescence); assay type: in vivo, mouse
Method: Mice were deeply anesthetized with isoflurane. After identifying the sagittal and coronal sutures on the right side, a hole was drilled at the following coordinates: 1 mm anterior and 1,5 mm lateral from bregma. GL261 tdTomato^+luc^+ glioma cells (80,000 in 1 μL of DMEM) were stereotactically injected with a Hamilton syringe to the right striatum of the mouse 3 mm deep from the surface of the brain. The skin incision was closed and mice were monitored until they completely recovered from anesthesia. Mice were randomly allocated to the study groups. The animals were weighed weekly and observed daily for clinical symptoms and evidence of toxicity by evaluating their eating, mobility, weight loss, hair loss, and hunched posture. OAT-1746 was administered by oral gavage at 50 mg/kg twice a day from day 1 after implantation. Anti-PD-1 antibody (Biolegend, GoInVivo™ Purified anti-mouse CD279) was injected intraperitoneally (i.p.) at a dose of 2.5 mg/kg on days 8, 10, 12, 14 post-implantation. Control groups received vehicle (saline) twice a day by gavage. Animals were euthanized when they lost more than 20% of body weight compared to day 0.
To monitor tumor growth, mice were injected i.p. with 150 mg/kg body weight luciferin (D-luciferin sodium salt BC218 Synchem) and left for 8 min. Then, the animals were anesthetized with 3% isoflurane and transferred to the X-treme Imaging System (Bruker, Germany). At 10 min after the D-luciferin injection, a photonic emission was imaged. Tumors were visualized at days 14, 21 and 28 after implantation and bioluminescent images were quantified as photon/sec/mm^2. […]
The animals were sacrificed on the day 21 after GL261 tdTomato^+luc^+ cell implantation and perfused with 4% paraformaldehyde in PBS. […] To quantify the tumor size, sections were stained with toluidine blue, and images were acquired using a Leica DM4000B microscope (Leica Microsystems, Wetzlar, Germany). Tumor areas were measured using ImageJ software (NIH, Bethesda, MD, USA) on every sixth brain slice, and tumor volumes were calculated as previously described ([26]).

CN(C)C[C@@H]1CC[C@@H](CCB(O)O)C[C@]1(N)C(=O)O [OAT-1746]
arginine concentration in the blood plasma [1]: increase of arginine concentration | arginine concentration in the brain [1]: increase of arginine concentration | antitumor efficacy in non-CNS tumor models [2]: significant antitumor efficacy | toxicity in experimental animals ([2]; multiple oral dosing, mono- or combinatorial therapies, other tumor models): no toxicity | percentage of microglia (CD11b+CD45low) and blood-derived macrophages (CD11b+CD45high) ([3]; flow cytometry, day 28): did not change | accumulation of CD8+ cells ([3]; immunohistochemistry, day 21): did not affect | accumulation of Iba1+ and Arg1+ cells in gliomas ([3]; immunohistochemistry, day 21): did not change | animals that developed tumors at day 14 ([4]; bioluminescence, day 14): 5 out of 8 | tumor growth (tumor volume on brain sections) ([4]; day 21, OAT-1746 50 mg/kg oral twice a day, anti-PD-1 2.5 mg/kg i.p. days 8, 10, 12, 14): did not reduce the tumor growth | glioma growth (bioluminescence imaging) ([4]; days 14, 21, 28 post-implantation): did not show any effect on the tumor volume
